Test results published in PMC6274419, “Synthesis and Anticancer Activities of Glycyrrhetinic Acid Derivatives” (Molecules, 2016).
Structures can show the parent of a compound that is named as a salt. Where two headings read alike, the source gives them in different places.

What was measured:
MCF-7 cells = assay: MTT cytotoxicity assay, MCF-7; assay type: cell-based, human; conditions: read-out: IC50 MCF-7
Experimental: (§1) The anticancer activities of compounds 17–24, 41–56 against MCF-7, MDA-MB-231 and hTERT-RPE1 cells were determined in vitro by an MTT assay. […] The data was calculated and presented as IC50 values in Table 1.
(§2) The cytotoxicities of the compounds were evaluated by the MTT assay, which is based on the conversion of MTT to formazan crystals by mitochondrial dehydrogenases. […] The medium was incubated with 20 μL of 5 mg/mL MTT solution for 3 h in a humidified incubator containing 5% CO2. The purple coloured formazan crystals formed in the wells were dissolved in DMSO and their absorbances were measured at 570 nm with a microplate reader. Cell viability was expressed as a percentage of the value in control cultures.

MDA-MB-231 cells = assay: MTT cytotoxicity assay, MDA-MB-231; assay type: cell-based, human; conditions: read-out: IC50 MDA-MB-231
Experimental: The data was calculated and presented as IC50 values in Table 1.
as §2

hTERT-RPE1 cells = assay: MTT cytotoxicity assay, hTERT-RPE1 normal cells; assay type: cell-based, human; conditions: read-out: IC50 hTERT-RPE1
Experimental: as §1, §2

## COC(=O)/C=C/c1cccc(OC(=O)[C@@]2(C)CC[C@]3(C)CC[C@]4(C)C(=CC(=O)[C@@H]5[C@@]6(C)CC[C@H](OC(=O)[C@@H](N)CCSC)C(C)(C)[C@@H]6CC[C@]54C)[C@@H]3C2)c1 (as salt: hydrochloride) [Compound 53, trans-3-Hydroxycinnamic acid methyl ester 3β-(l-methionine)-11-oxo-olean-12-en-30-oate hydrochloride]
other
  melting point: 190 to 192 °C

## CCOC(=O)/C=C/c1cccc(OC(=O)[C@@]2(C)CC[C@]3(C)CC[C@]4(C)C(=CC(=O)[C@@H]5[C@@]6(C)CC[C@H](OC(=O)[C@@H](N)CC[Se]C)C(C)(C)[C@@H]6CC[C@]54C)[C@@H]3C2)c1 (as salt: hydrochloride) [Compound 56, trans-3-Hydroxycinnamic acid ethyl ester 3β-(l-selenomethionine)-11-oxo-olean-12-en-30-oate hydrochloride]
other
  melting point: 191 to 194 °C

## CCOC(=O)/C=C/c1ccc(OC(=O)[C@@]2(C)CC[C@]3(C)CC[C@]4(C)C(=CC(=O)[C@@H]5[C@@]6(C)CC[C@H](OC(=O)[C@@H](N)CCSC)C(C)(C)[C@@H]6CC[C@]54C)[C@@H]3C2)cc1 (as salt: hydrochloride) [Compound 47, trans-4-Hydroxycinnamic acid ethyl ester 3β-(l-methionine)-11-oxo-olean-12-en-30-oatehydrochloride]
other
  melting point: 202 to 204 °C

## COC(=O)/C=C/c1ccc(OC(=O)[C@@]2(C)CC[C@]3(C)CC[C@]4(C)C(=CC(=O)[C@@H]5[C@@]6(C)CC[C@H](OC(=O)[C@@H](N)CC[Se]C)C(C)(C)[C@@H]6CC[C@]54C)[C@@H]3C2)cc1 (as salt: hydrochloride) [Compound 46, trans-4-Hydroxycinnamic acid methyl ester 3β-(l-selenomethionine)-11-oxo-olean-12-en-30-oate hydrochloride]
other
  melting point: 218 to 221 °C

## CCOC(=O)/C=C/c1ccc(OC(=O)[C@@]2(C)CC[C@]3(C)CC[C@]4(C)C(=CC(=O)[C@@H]5[C@@]6(C)CC[C@H](OC(=O)[C@@H](N)CC[Se]C)C(C)(C)[C@@H]6CC[C@]54C)[C@@H]3C2)c(OC)c1 (as salt: hydrochloride) [Compound 44, Ferulic acid ethyl ester 3β-(l-selenomethionine)-11-oxo-olean-12-en-30-oate hydrochloride]
other
  melting point: 205 to 207 °C

## COC(=O)/C=C/c1ccc(OC(=O)[C@@]2(C)CC[C@]3(C)CC[C@]4(C)C(=CC(=O)[C@@H]5[C@@]6(C)CC[C@H](OC(=O)[C@@H](N)CC[Se]C)C(C)(C)[C@@H]6CC[C@]54C)[C@@H]3C2)c(OC)c1 (as salt: hydrochloride) [Compound 42, Ferulic acid methyl ester 3β-(l-selenomethionine)-11-oxo-olean-12-en-30-oate hydrochloride]
other
  melting point: 210 to 213 °C

## COC(=O)/C=C/c1cccc(OC(=O)[C@@]2(C)CC[C@]3(C)CC[C@]4(C)C(=CC(=O)[C@@H]5[C@@]6(C)CC[C@H](OC(=O)[C@@H](N)CC[Se]C)C(C)(C)[C@@H]6CC[C@]54C)[C@@H]3C2)c1 (as salt: hydrochloride) [Compound 54, trans-3-Hydroxycinnamic acid methyl ester 3β-(l-selenomethionine)-11-oxo-olean-12-en-30-oate hydro-chloride]
other
  melting point: 194 to 196 °C

## CCOC(=O)/C=C/c1ccc(OC)c(OC(=O)[C@@]2(C)CC[C@]3(C)CC[C@]4(C)C(=CC(=O)[C@@H]5[C@@]6(C)CC[C@H](OC(=O)[C@@H](N)CCSC)C(C)(C)[C@@H]6CC[C@]54C)[C@@H]3C2)c1 (as salt: hydrochloride) [Compound 51, Isoferulic acid ethyl ester 3β-(l-methionine)-11-oxo-olean-12-en-30-oate hydrochloride]
other
  melting point: 192 to 195 °C

## CCOC(=O)/C=C/c1ccc(OC(=O)[C@@]2(C)CC[C@]3(C)CC[C@]4(C)C(=CC(=O)[C@@H]5[C@@]6(C)CC[C@H](OC(=O)[C@@H](N)CCSC)C(C)(C)[C@@H]6CC[C@]54C)[C@@H]3C2)c(OC)c1 (as salt: hydrochloride) [Compound 43, Ferulic acid ethyl ester 3β-(l-methionine)-11-oxo-olean-12-en-30-oate hydrochloride]
other
  melting point: 191 to 194 °C

## COC(=O)/C=C/c1ccc(OC(=O)[C@@]2(C)CC[C@]3(C)CC[C@]4(C)C(=CC(=O)[C@@H]5[C@@]6(C)CC[C@H](OC(=O)[C@@H](N)CCSC)C(C)(C)[C@@H]6CC[C@]54C)[C@@H]3C2)c(OC)c1 (as salt: hydrochloride) [Compound 41, Ferulic acid methyl ester 3β-(l-methionine)-11-oxo-olean-12-en-30-oate hydrochloride]
other
  melting point: 203 to 205 °C

## CCOC(=O)/C=C/c1cccc(OC(=O)[C@@]2(C)CC[C@]3(C)CC[C@]4(C)C(=CC(=O)[C@@H]5[C@@]6(C)CC[C@H](OC(=O)[C@@H](N)CCSC)C(C)(C)[C@@H]6CC[C@]54C)[C@@H]3C2)c1 (as salt: hydrochloride) [Compound 55, trans-3-Hydroxycinnamic acid ethyl ester 3β-(l-methionine)-11-oxo-olean-12-en-30-oate hydrochloride]
other
  melting point: 183 to 185 °C

## CCOC(=O)/C=C/c1ccc(OC(=O)[C@@]2(C)CC[C@]3(C)CC[C@]4(C)C(=CC(=O)[C@@H]5[C@@]6(C)CC[C@H](OC(=O)[C@@H](N)CC[Se]C)C(C)(C)[C@@H]6CC[C@]54C)[C@@H]3C2)cc1 (as salt: hydrochloride) [Compound 48, trans-4-Hydroxycinnamic acid ethyl ester 3β-(l-selenomethionine)-11-oxo-olean-12-en-30-oate hydrochloride]
other
  melting point: 208 to 211 °C

## COC(=O)/C=C/c1ccc(OC)c(OC(=O)[C@@]2(C)CC[C@]3(C)CC[C@]4(C)C(=CC(=O)[C@@H]5[C@@]6(C)CC[C@H](OC(=O)[C@@H](N)CCSC)C(C)(C)[C@@H]6CC[C@]54C)[C@@H]3C2)c1 (as salt: hydrochloride) [Compound 49, Isoferulic acid methyl ester 3β-(l-methionine)-11-oxo-olean-12-en-30-oate hydrochloride]
other
  melting point: 199 to 201 °C

## CCOC(=O)/C=C/c1ccc(OC)c(OC(=O)[C@@]2(C)CC[C@]3(C)CC[C@]4(C)C(=CC(=O)[C@@H]5[C@@]6(C)CC[C@H](OC(=O)[C@@H](N)CC[Se]C)C(C)(C)[C@@H]6CC[C@]54C)[C@@H]3C2)c1 (as salt: hydrochloride) [Compound 52, Isoferulic acid ethyl ester 3β-(l-selenomethionine)-11-oxo-olean-12-en-30-oate hydrochloride]
other
  melting point: 196 to 198 °C

## CCOC(=O)/C=C/c1ccc(OC)c(OC(=O)[C@@]2(C)CC[C@]3(C)CC[C@]4(C)C(=CC(=O)[C@@H]5[C@@]6(C)CC[C@H](OC(=O)[C@@H](N)CC[Se]C)C(C)(C)[C@@H]6CC[C@]54C)[C@@H]3C2)c1 [Compound 52, Isoferulic acid ethyl ester 3β-(l-selenomethionine)-11-oxo-olean-12-en-30-oate hydrochloride]
MCF-7 cells; Homo sapiens, MCF7, 24 h
  IC50: 6.93 ± 0.63 µM
MDA-MB-231 cells; Homo sapiens, MDA-MB-231, 24 h
  IC50: 3.27 ± 0.66 µM
hTERT-RPE1 cells; Homo sapiens, hTERT-RPE1, 24 h
  IC50: 10.1 ± 0.28 µM

## CC1(C)[C@@H](O)CC[C@]2(C)[C@H]3C(=O)C=C4[C@@H]5C[C@@](C)(C(=O)O)CC[C@]5(C)CC[C@@]4(C)[C@]3(C)CC[C@@H]12 [GA, glycyrrhetinic acid]
MCF-7 cells; MCF7, human breast cancer cell line MCF-7, MTT method, 24 h treatment, mean ± SD
  IC50: 75.7 ± 1.52 µM
MDA-MB-231 cells; human breast cancer cell line MDA-MB-231, MTT method, 24 h treatment, mean ± SD
  IC50: 84.7 ± 1.73 µM
hTERT-RPE1 cells; normal human retinal pigment epithelial cell line hTERT-RPE1, MTT method, 24 h treatment, mean ± SD
  IC50: 63.4 ± 1.07 µM
